The test system of series [1] is A. baumannii (ATCC 15308). Kind of series: Minimal inhibitory concentration (MIC), broth microdilution. Type of series: cell-based. Particulars: Mueller Hinton Broth, 5 × 10^5 CFU/mL, 0.04% BSA and 0.002% acetic acid, 20–22 h at 37 °C, duplicate. The protocol:
(§1) Assays were performed on three Gram-negative bacteria: E. coli (BW25113, Coli Genetic Stock Center), A. baumannii (ATCC 15308, CECT, Valencia, Spain), and Pseudomonas sp. (ATCC15915, CECT). The minimal inhibitory concentration (MIC) of each peptide was determined as described by Wiegand et al.. Peptide stocks in water were added to polypropylene 96-well plates (Greiner, Frickenhausen, Germany) and serially diluted from 100 to 0.2 μM. Fresh bacteria were incubated at 37 °C in Mueller Hinton Broth (MHB, Condalab, Torrejón de Ardoz, Spain) up to exponential growth and diluted to a final inoculum of 5 × 10^5 CFU/mL. BSA and acetic acid at 0.04% (w/v) and 0.002% (v/v) final concentration, respectively, were added to avoid peptide self-aggregation. Plates were incubated for 20–22 h at 37 °C. Each peptide was tested in duplicate. MIC values were the lowest peptide concentration where bacterial growth was not detected.

Series [2] has as its system E. coli (BW25113). The series is described as above. The format is cell-based. As to conditions: Mueller Hinton Broth, 5 × 10^5 CFU/mL, 0.04% BSA and 0.002% acetic acid, 20–22 h at 37 °C, duplicate. The protocol:
as §1

Series [3] has as its system Pseudomonas sp. (ATCC15915). Described as above. Type of series: cell-based. Particulars: Mueller Hinton Broth, 5 × 10^5 CFU/mL, 0.04% BSA and 0.002% acetic acid, 20–22 h at 37 °C, duplicate. The protocol: as §1
The subject of series [4] is 1BR3G human fibroblasts. Kind of series: Peptide cytotoxicity (Cell Titer Blue viability). The format is cell-based. Particulars: 24 h treatment, medium with 2% FBS, Cell Titer Blue fluorescence, triplicate. From the text: Human HeLa S3 (cervix epithelial carcinoma), leukemia Jurkat E6.1 (T-cell lineage), U937 (histiocytic lymphoma), THP-1 (acute monocytic leukemia), and 1BR3G human fibroblasts were obtained from the Cell Lines Repository of the Institut Municipal d’Investigació Medica (Barcelona, Spain). BxPC3 (pancreas adenocarcinoma), A549 (lung carcinoma), SH-Sy5Y (neuroblastoma), Panc1 (epithelioid carcinoma), 786-O (renal cell adenocarcinoma), and HT29 (colorectal adenocarcinoma) were obtained from the Integrative Biomedical Materials and Nanomedicine lab at UPF (Barcelona, Spain). HeLa S3, Jurkat E6.1, U937, THP-1, Panc1, and 786-O were cultured in Roswell Park Memorial Institute medium (RPMI) supplemented with 10% fetal bovine serum (FBS) and 1% penicillin/streptomycin solution and maintained at 37 °C in a humidified atmosphere with 5% of CO2. 1BR3G, BxPC3, A549, and HT29 were cultured in Dulbecco’s Modified Eagle’s Medium (DMEM) supplemented with 10% FBS and 1% penicillin/streptomycin solution and maintained at 37 °C in a humidified atmosphere with 5% of CO2. SH-Sy5Y was cultured in DMEM supplemented with 15% FBS and 1% penicillin/streptomycin and maintained at 37 °C in a humidified atmosphere with 5% of CO2. Cultures were maintained at 10^5–10^6 cell/mL densities. For 1BR3G human fibroblasts, BxPC3, A549, SH-Sy5Y, Panc1, 786-O, and HT29 were split every time they reached 80–90% of confluence after harvesting with PBS and trypsin.
About 60,000 cells were added to different microfuge tubes containing 2-fold serial dilution of the peptide, with a final concentration in the range between 0.1–100 μM in RPMI containing 2% of FBS. After 30 min incubation at 37 °C and 5% of CO2, […] of medium containing approximately 10,000 treated cells were transferred to a 96-well plate. Then, 15 μL of Cell Titer Blue dye (Promega, Madison, WI, USA) was added, and plates were reincubated for 24 h. Fluorescence was read at 4 and 24 h after dye addition in a Synergy HTX (BioTek, Winooski, VT, USA) reader, with λexc = 560 nm and λem = 620 nm. In the case of adherent cultures, 5000 cells/well were seeded in 96-well plates. After 24 h incubation at 37 °C and 5% of CO2, the medium was removed, and a new medium with 2% of FBS containing the various 2-fold dilution of the peptides was added. After a further 30 min, 15 μL of Cell Titer Blue dye was added to each well, and the measurement was done as above. Relative viability was calculated relative to a cell with only 2% FBS in the corresponding medium as a control (100% viability). All assays were conducted in triplicate.

Series [5] in a line: Serum stability. The format is in vitro ADME. Particulars: 0.5 mL each of human serum (Sigma-Aldrich) and peptide (1 mM in water), 37 °C with stirring, trichloroacetic acid treatment, HPLC / LC-MS. How it is done:
Briefly, 0.5 mL each of human serum (Sigma-Aldrich, St. Louis, MO, USA) and peptide (1 mM in water) were mixed and incubated for 24 h at 37 °C with stirring. Aliquots (0.1 mL) were taken at 0, 1, 5, 10, 30, 120, 360 and 1440 min and treated with 20 μL of trichloroacetic acid (15% (v/v) in water). The suspension was centrifuged for 30 min at 4 °C and 13,000 rpm, and the supernatant was analyzed by HPLC as described above.

The structures appear in SMILES notation. In brackets after ≈: the same amount, converted by molar mass. Square brackets hold non-standard residues; d marks the D form. Peptide text beside a SMILES is read from it.

For the molecule `CC[C@H](C)[C@H](NC(=O)CNC(=O)[C@@H](NC(=O)[C@@H](NC(=O)[C@@H](NC(=O)[C@@H]1CCCN1C(=O)[C@@H](N)Cc1ccccc1)[C@@H](C)CC)[C@@H](C)O)C(C)C)C(=O)N[C@H](C(=O)N[C@@H](CCSC)C(=O)N1CCC[C@H]1C(=O)N[C@@H](CCCCN)C(=O)N[C@@H](CCCCN)C(=O)N[C@@H](Cc1ccccc1)C(=O)N[C@H](C(=O)N[C@@H](CCCCN)C(=O)N[C@@H](CCCCN)C(=O)N[C@@H](CC(C)C)C(=O)N[C@@H](CCCNC(=N)N)C(=O)N[C@@H](CCCCN)C(=O)N[C@@H](CCCCN)C(N)=O)[C@@H](C)CC)C(C)C` [Ctn[15-34] retro] (H-FPITVGIVMPKKFIKKLRKK-NH2), the “MIC A. baumannii” value in series [1] turned out to be 0.78 µM (≈ 1.85 µg/mL). Besides, the “MIC E. coli” value in series [2] came out at 0.16 µM (≈ 0.379 µg/mL). Further, the “MIC Pseudomonas sp.” value in series [3] is <0.05 µM. Further, the “IC50 (cell viability) human fibroblast 1BR3G” value in series [4] is listed as “≈ 15.84 μM”.

In the case of `CC[C@@H](C)[C@@H](NC(=O)CNC(=O)[C@H](NC(=O)[C@H](NC(=O)[C@H](NC(=O)[C@H]1CCCN1C(=O)[C@H](N)Cc1ccccc1)[C@H](C)CC)[C@H](C)O)C(C)C)C(=O)N[C@@H](C(=O)N[C@H](CCSC)C(=O)N1CCC[C@@H]1C(=O)N[C@H](CCCCN)C(=O)N[C@H](CCCCN)C(=O)N[C@H](Cc1ccccc1)C(=O)N[C@@H](C(=O)N[C@H](CCCCN)C(=O)N[C@H](CCCCN)C(=O)N[C@H](CC(C)C)C(=O)N[C@H](CCCNC(=N)N)C(=O)N[C@H](CCCCN)C(=O)N[C@H](CCCCN)C(N)=O)[C@H](C)CC)C(C)C` [Ctn[15-34] retroenantio] (H-[dF][dP][dI][dT][dV]G[dI][dV][dM][dP][dK][dK][dF][dI][dK][dK][dL][dR][dK][dK]-NH2), the “MIC A. baumannii” value in series [1] was 0.39 µM (≈ 0.925 µg/mL). The “MIC E. coli” value in series [2] was 0.16 µM (≈ 0.379 µg/mL). Further, the “MIC Pseudomonas sp.” value in series [3] came to 0.1 µM (≈ 0.237 µg/mL). The half-life at 0.5 mM in series [5] (aliquots 0–1440 min, read-out: t1/2 in human serum) worked out at 15.3 h.

For `CC[C@@H](C)[C@@H](NC(=O)CNC(=O)[C@H](NC(=O)[C@H](NC(=O)[C@H](NC(=O)[C@H]1CCCN1C(=O)[C@H](N)Cc1ccccc1)[C@H](C)CC)[C@H](C)O)C(C)C)C(=O)N[C@@H](C(=O)N[C@H](CCSC)C(=O)N1CCC[C@@H]1C(=O)N[C@H](CCCCN)C(=O)N[C@H](CCCCN)C(=O)N[C@H](Cc1ccccc1)C(=O)N[C@@H](C(=O)N[C@H](CCCCN)C(=O)N[C@H](CCCCN)C(=O)N[C@H](CC(C)C)C(=O)N[C@H](CCCNC(=N)N)C(=O)N[C@H](CCCCN)C(=O)N[C@H](CCCCN)C(=O)N[C@@H](C(=O)N[C@H](CO)C(=O)N[C@H](CCCCN)C(=O)N[C@H](CCCCN)C(=O)N[C@@H](C(=O)N[C@H](CCCCN)C(=O)N[C@H](CCCCN)C(=O)N[C@H](Cc1ccccc1)C(=O)N[C@H](Cc1ccccc1)C(=O)N[C@H](CCCCN)C(=O)N[C@H](CCCCN)C(=O)N[C@H](Cc1ccccc1)C(=O)N[C@H](CCCNC(=N)N)C(=O)N[C@H](CCCCN)C(N)=O)C(C)C)C(C)C)[C@H](C)CC)C(C)C` [Ctn retroenantio] (H-[dF][dP][dI][dT][dV]G[dI][dV][dM][dP][dK][dK][dF][dI][dK][dK][dL][dR][dK][dK][dV][dS][dK][dK][dV][dK][dK][dF][dF][dK][dK][dF][dR][dK]-NH2), the “MIC A. baumannii” value in series [1] turned out to be 1.56 µM (≈ 6.48 µg/mL). For the same molecule, the “MIC E. coli” value in series [2] was found to be 0.78 µM (≈ 3.24 µg/mL). Further, the “MIC Pseudomonas sp.” value in series [3] came to 0.78 µM (≈ 3.24 µg/mL). In addition, the “IC50 (cell viability) human fibroblast 1BR3G” value in series [4] came to 4.3 µM. In series [5] (24 h (1440 min), read-out: Peptide remaining in human serum after 24 h), the share remaining at 24 h, 0.5 mM is 40%.
